Test results from patent US20220009906A1, “ISOINDOLIN-1-ONE DERIVATIVES USEFUL AS GRK2 INHIBITORS” (priority 2020, published 2022).

What follows are compounds tested against T1, GRK2 (Homo sapiens, UniProt P25098) (assay: hGRK2 LANCE Ultra In Vitro Assay). Conditions: Biological Example 1 GRK2 Lancer IC50 (μM), 10 nM GRK2; 30 or 600 μM ATP (not stated which); multiple measurements listed individually.
T1 sequence (P25098 1-689): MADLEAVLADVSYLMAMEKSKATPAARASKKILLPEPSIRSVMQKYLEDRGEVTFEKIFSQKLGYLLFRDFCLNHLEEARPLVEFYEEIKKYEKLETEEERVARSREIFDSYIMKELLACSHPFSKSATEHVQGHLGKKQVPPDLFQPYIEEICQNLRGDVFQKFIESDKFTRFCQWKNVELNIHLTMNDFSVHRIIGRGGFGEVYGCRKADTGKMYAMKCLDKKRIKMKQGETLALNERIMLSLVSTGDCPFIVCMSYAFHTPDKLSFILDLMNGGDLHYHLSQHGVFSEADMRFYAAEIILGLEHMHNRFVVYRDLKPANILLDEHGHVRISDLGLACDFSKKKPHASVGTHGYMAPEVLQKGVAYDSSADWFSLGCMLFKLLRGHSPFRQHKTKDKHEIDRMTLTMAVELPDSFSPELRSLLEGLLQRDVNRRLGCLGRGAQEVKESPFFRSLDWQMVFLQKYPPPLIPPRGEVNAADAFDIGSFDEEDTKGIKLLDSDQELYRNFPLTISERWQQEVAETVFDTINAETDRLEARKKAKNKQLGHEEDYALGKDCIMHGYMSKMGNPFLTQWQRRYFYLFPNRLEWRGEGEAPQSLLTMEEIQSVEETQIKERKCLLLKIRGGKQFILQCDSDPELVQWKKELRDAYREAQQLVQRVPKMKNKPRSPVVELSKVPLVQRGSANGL
Assay type: biochemical
Procedure: hGRK2 LANCE Ultra In Vitro Assay
G-protein coupled receptor kinases (GR Kinases) desensitize activated G-protein coupled receptors (GPCRs), by phosphorylation of cytoplasmic loops or carboxyl-terminal tails of GPCRs. GRK2 is one of the 6 different GR kinases and is implicated in heart failure and diabetes.
This assay is sensitive and requires as low as 10 nM enzyme, in a total volume of 10 μL. In addition, the ATP concentration can be varied over a broad range, without interfering with the assay or changing the assay condition. […] Testing inhibitors routinely at both high and low ATP concentrations also enables identification of potential non-ATP competitive inhibitors.
Paroxetine was used as the reference compound in this assay.
Test compounds were dissolved in DMSO at 1 mM and were 3-fold serial diluted. The compound DMSO solutions were then added (100 nL) into a plate well using an acoustic dispenser. To each well was then added 20 nM GRK2 (5 μL) in assay buffer (20 mM HEPES, pH 7.5, 10 mM MgCl2, 0.001% Tween-20®). The plate was sealed and centrifuged at 1000 rpm for 1 min. The plate and wells containing a mixture of GRK2 and test compound were incubated at ambient temperature for 30 min (prior to initializing the enzymatic reaction).
Enzyme reactions were initiated by the addition of 4.9 μL Substrates/Eu-Ab mix to each well. […] Final concentrations of reagents in the assays were as follows: 20 mM HEPES, pH 7.5; 10 mM MgCl2; 0.001% Tween-20® (w/v); 30 or 600 μM ATP; 200 nM ULight-peptide; 4 nM Eu-Ab; 10 nM GRK2; and 1% DMSO.
The plates were sealed and centrifuged at 1000 rpm for 1 min. For reactions at low ATP concentration (30 μM), reaction mixtures were incubated at ambient temperature for 120 min. For reactions at high ATP concentration (600 μM), reaction mixtures were incubated at ambient temperature for 60 min.
The enzyme reactions were quenched by addition of 10 μL of 12 mM EDTA in 1× LANCE detection solution to each well. The plates were then incubated at ambient temperature for 30 min. Time-resolved fluorescence signal of reactions were read on an EnVision or PHERAstar plate reader with the following parameters: Excitation wavelength=337 nm; emission wavelength (donor)=620 nm; emission wavelength (acceptor)=665 nm.
The raw HTRF data were converted to % active as follows:
% active=(sample−NC)/(PC−NC)*100
where NC is the mean of negative control (reactions without GRK2), and PC is the mean of positive control (reactions with GRK2 but without inhibitor). IC50 values were determined from a 4-parameter fit, using the following equation:
Y=Bottom+(Top−Bottom)/(1+10^((Log IC50−X)*Hill slope))
where X=log10 of the compound concentration.

SMILES	IC50 [µM]
COc1cccc([C@@H](C)N2C(=O)c3cc(-c4cn[nH]c4)ccc3C23CCC(O)C3)c1 (mixture of isomers) [Compound 173]	0.092
COc1cccc(C(CO)N2Cc3ccc(-c4cn[nH]c4)cc3C2=O)c1 (racemic) [Compound 38, 2-(2-hydroxy-1-(3-methoxyphenyl)ethyl)-6-(1H-pyrazol-4-yl)isoindolin-1-one]	0.006
COc1cccc([C@@H](C)N2C(=O)c3cc(-c4cn[nH]c4)ccc3[C@@H]2CC(=O)O)c1 (single isomer, unassigned) [Compound 97]	0.012
COc1cccc([C@@H](C)N2C(=O)c3cc(-c4cn[nH]c4)ccc3[C@H]2CC(=O)O)c1 (single isomer, unassigned) [Compound 98]	0.106
COc1cccc(C(CO)N2Cc3ccc(-c4cn[nH]c4)cc3C2=O)c1 (single isomer, unassigned) [Compound 113, 2-[(1S*)-2-hydroxy-1-(3-methoxyphenyl)ethyl]-6-(1H-pyrazol-4-yl)isoindolin-1-one]	0.003
COc1cccc(C(CO)N2Cc3ccc(-c4cn[nH]c4)cc3C2=O)c1 (single isomer, unassigned) [Compound 172]	0.148
Cc1ccc(CN2Cc3ccc(-c4cn[nH]c4)cc3C2=O)s1 [Compound 27]	0.324
O=C1c2cc(-c3cn[nH]c3)ccc2CN1Cc1cccs1 [Compound 28, 6-(1H-Pyrazol-4-yl)-2-(thiophen-2-ylmethyl)isoindolin-1-one]	0.091
CCOc1cccc([C@@H](C)N2Cc3ccc(-c4cn[nH]c4)cc3C2=O)c1 [Compound 29, 2-[(1R)-1-(3-ethoxyphenyl)ethyl]-6-(1H-pyrazol-4-yl)isoindolin-1-one]	0.006
COc1cccc([C@@H](C)N2Cc3ccc(-c4cn[nH]c4)c(F)c3C2=O)c1 [Compound 30, 7-fluoro-2-[(1R)-1-(3-methoxyphenyl)ethyl]-6-(1H-pyrazol-4-yl)isoindolin-1-one]	< 0.005
CC(C)NC(=O)c1cccc([C@@H](C)N2Cc3ccc(-c4cn[nH]c4)cc3C2=O)c1 [Compound 31]	5.38
C[C@H](c1cccc(C(=O)Nc2ccc(F)c(F)c2)c1)N1Cc2ccc(-c3cn[nH]c3)cc2C1=O [Compound 32]	0.261
COc1cccc(CN2C(=O)c3cc(-c4ccnc(N)n4)ccc3C2CC#N)c1 (stereo not drawn) [Compound 33]	0.098
O=C(Nc1ccc(F)c(F)c1)c1cccc(CN2Cc3ccc(-c4cn[nH]c4)cc3C2=O)c1 [Compound 34]	0.006
COc1cccc(CN2Cc3cc(F)c(-c4cn[nH]c4)cc3C2=O)c1 [Compound 35, 5-fluoro-2-[(3-methoxyphenyl)methyl]-6-(1H-pyrazol-4-yl)isoindolin-1-one]	0.005
COc1cccc(CN2Cc3cc(F)c(-c4ccnc(N)n4)cc3C2=O)c1 [Compound 36]	0.241
CNC(=O)c1cc(-c2ccc3c(c2)C(=O)N(Cc2cccc(OC)c2)C3)ccn1 [Compound 37, 4-(2-(3-methoxybenzyl)-3-oxoisoindolin-5-yl)-N-methylpicolinamide]	> 20
CCOc1cccc(CN2C(=O)c3cc(-c4c[nH]nn4)ccc3C2(C)C)c1 [Compound 39, 2-(3-Ethoxybenzyl)-3,3-dimethyl-6-(1H-1,2,3-triazol-4-yl)isoindolin-1-one]	0.196

SMILES	IC50 [µM]
COc1cccc([C@@H](C)N2Cc3ccc(-n4cn[nH]c4=O)cc3C2=O)c1 [Compound 40, (R)-2-(1-(3-methoxyphenyl)ethyl)-6-(5-oxo-1,5-dihydro-4H-1,2,4-triazol-4-yl)isoindolin-1-one]	0.115
COc1cccc(CN2C(=O)c3cc(-c4cn[nH]c4)ccc3C2(CCO)CCO)c1 [Compound 41, 3,3-bis(2-hydroxyethyl)-2-(3-methoxybenzyl)-6-(1H-pyrazol-4-yl)isoindolin-1-one]	0.034
COc1cccc(CN2C(=O)c3cc(-c4cn[nH]c4)ccc3C23CCCC3)c1 [Compound 42, 2′-(3-methoxybenzyl)-5′-(1H-pyrazol-4-yl)spiro[cyclopentane-1,1′-isoindolin]-3′-one]	0.006
O=C1c2cc(-c3cn[nH]c3)ccc2CN1Cc1ccc(F)s1 [Compound 43, 2-((5-Fluorothiophen-2-yl)methyl)-6-(1H-pyrazol-4-yl)isoindolin-1-one]	0.088
COc1cccc(CN2Cc3ccc(-n4cn[nH]c4=O)cc3C2=O)c1 [Compound 44, 2-(3-methoxybenzyl)-6-(5-oxo-1,5-dihydro-4H-1,2,4-triazol-4-yl)isoindolin-1-one]	0.382
CCOc1cccc(CN2C(=O)c3cc(-n4cn[nH]c4=O)ccc3C2(C)C)c1 [Compound 45, 2-(3-ethoxybenzyl)-3,3-dimethyl-6-(5-oxo-1,5-dihydro-4H-1,2,4-triazol-4-yl)isoindolin-1-one]	1.62
COc1cccc(CN2C(=O)c3cc(-c4cn[nH]c4)ccc3C23CCC(O)C3)c1 (stereo not drawn) [Compound 46, 3-hydroxy-2′-(3-methoxybenzyl)-5′-(1H-pyrazol-4-yl)spiro[cyclopentane-1,1′-isoindolin]-3′-one]	0.007
CNC(=O)c1nccc(-c2ccc3c(c2)C(=O)N(Cc2ccc(OC)cc2)C3)n1 [Compound 47, 4-(2-(4-methoxybenzyl)-3-oxoisoindolin-5-yl)-N-methylpyrimidine-2-carboxamide]	~10
CCOc1cccc([C@@H](C)N2Cc3ccc(-c4cn[nH]c4)c(F)c3C2=O)c1 [Compound 48]	0.01
COc1cccc([C@@H](C)N2C(=O)c3cc(-c4cn[nH]c4)ccc3C2CCO)c1 (stereo partly drawn) [Compound 49, 3-(2-hydroxyethyl)-2-((R)-1-(3-methoxyphenyl)ethyl)-6-(1H-pyrazol-4-yl)isoindolin-1-one]	< 0.005
COc1cccc(CN2Cc3ccc(-c4ccnc5[nH]ccc45)cc3C2=O)c1 [Compound 50]	0.334
COc1ccc(OC)c(C(CO)N2Cc3ccc(-c4cn[nH]c4)cc3C2=O)c1 (stereo not drawn) [Compound 52, 2-(1-(2,5-dimethoxyphenyl)-2-hydroxyethyl)-6-(1H-pyrazol-4-yl)isoindolin-1-one]	0.742
CCOc1cccc(C(CO)N2Cc3ccc(-c4cn[nH]c4)cc3C2=O)c1 (stereo not drawn) [Compound 53, 2-(2-Hydroxy-1-(3-ethoxyphenyl)ethyl)-6-(1H-pyrazol-4-yl)isoindolin-1-one]	0.008
COC(=O)COc1cccc(CN2Cc3ccc(-c4ccnc5[nH]ccc45)cc3C2=O)c1 [Compound 54]	0.292
O=C(O)COc1cccc(CN2Cc3ccc(-c4cn[nH]c4)cc3C2=O)c1 [Compound 55]	0.011
O=C(O)COc1cccc(CN2Cc3ccc(-c4ccnc5[nH]ccc45)cc3C2=O)c1 [Compound 57]	2.56
COCC(c1cccc(OC)c1)N1Cc2ccc(-c3cn[nH]c3)cc2C1=O (stereo not drawn) [Compound 59, 2-(2-methoxy-1-(3-methoxyphenyl)ethyl)-6-(1H-pyrazol-4-yl)isoindolin-1-one]	0.009
COc1cccc(C(COCC(=O)O)N2Cc3ccc(-c4cn[nH]c4)cc3C2=O)c1 (stereo not drawn) [Compound 60, 2-(2-(3-methoxyphenyl)-2-(1-oxo-6-(1H-pyrazol-4-yl)isoindolin-2-yl)ethoxy)acetic acid]	0.017
